pKd, pKi: −log10 of the molar value. Like-named read-outs stand apart in the source and are kept apart here. Ends that are not written are not given here.
What was measured:
rat 5-HT2C receptor = target: T1, rat 5-HT2C receptor (Rattus norvegicus, UniProt P08909); experiment: Radioligand binding assay, cloned receptor; conditions: Table 2; read-out: r5HT2C Ki
T1 construct: expressed in transfected cells
T1 sequence (P08909 33-460): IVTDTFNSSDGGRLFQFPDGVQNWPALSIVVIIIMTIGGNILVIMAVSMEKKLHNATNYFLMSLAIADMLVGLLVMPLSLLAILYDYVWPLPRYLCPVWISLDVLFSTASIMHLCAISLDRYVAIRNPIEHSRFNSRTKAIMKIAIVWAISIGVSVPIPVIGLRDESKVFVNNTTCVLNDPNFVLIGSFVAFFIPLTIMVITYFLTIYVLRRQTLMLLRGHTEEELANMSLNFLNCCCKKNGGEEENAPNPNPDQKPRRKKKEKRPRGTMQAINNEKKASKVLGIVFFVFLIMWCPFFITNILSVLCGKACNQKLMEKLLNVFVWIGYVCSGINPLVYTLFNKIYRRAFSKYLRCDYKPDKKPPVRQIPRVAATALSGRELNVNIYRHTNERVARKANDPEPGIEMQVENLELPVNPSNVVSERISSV
Protocol: (§1) For binding assays, pellets of transfected cells are suspended in ice-cold buffer (20 mM Tris.HCl, 5 mM EDTA, pH 7.4) and homogenized by sonication for 7 sec. The cell lysates are centrifuged at 200×g for 5 min at 4° C. The supernatants are then centrifuged at 40,000×g for 20 min at 4° C. The resulting pellets are washed once in the homogenization buffer and suspended in binding buffer (see methods for radioligand binding). Protein concentrations are determined by the method of Bradford (1976) using bovine serum albumin as the standard. Binding assays are usually performed immediately, however it is possible to prepare membranes in batch and store frozen in liquid nitrogen for future use.
(§2) The methods to obtain the cDNA of the human NPY1, NPY5, GALR1, GALR2, and GALR3 and rat 5-HT2C receptors, express said receptors in heterologous systems, and carry out assays to determine binding affinity are described in the following publications and above: human NPY1 (Larhammar et al., 1992), human NPY5 (U.S. Pat. No. 5,602,024, the disclosure of which is hereby incorporated by reference in its entirety into this application), human Gal1 (Habert-Ortoli et al., 1994), human Gal2 (Smith et al., 1997), human Gal3 (Smith et al., 1998), and rat 5-HT2C (Julius et al., 1988).

human MCH1 receptor [1] = target: T2, human MCH1 receptor (Homo sapiens, UniProt Q99705); experiment: Radioligand competition binding with [3H]Compound 10, membranes of A293 cells; conditions: Table 3, A293 cell membranes, [3H]Compound 10 as radioligand, read-out: hMCH1 * Ki
T2 sequence (Q99705 whole entry): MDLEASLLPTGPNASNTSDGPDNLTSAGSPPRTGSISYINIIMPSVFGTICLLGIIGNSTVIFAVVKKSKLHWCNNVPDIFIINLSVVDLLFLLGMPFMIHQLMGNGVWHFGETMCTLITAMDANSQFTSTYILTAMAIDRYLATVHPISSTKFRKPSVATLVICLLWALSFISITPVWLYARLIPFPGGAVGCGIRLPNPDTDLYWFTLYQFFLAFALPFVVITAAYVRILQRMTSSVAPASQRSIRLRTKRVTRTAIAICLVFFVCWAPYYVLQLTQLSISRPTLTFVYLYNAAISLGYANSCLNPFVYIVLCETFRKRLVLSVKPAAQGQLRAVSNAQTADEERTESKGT
Protocol: as §1
Radioligand binding assays for the MCH1 receptor were carried out using plasmid pEXJ.HR-TL231 (ATCC Accession No. 203197). Plasmid pEXJ.HR-TL231 comprises the regulatory elements necessary for expression of DNA in a mammalian cell operatively linked to DNA encoding the human MCH1 receptor so as to permit expression thereof. Plasmid pEXJ.HR-TL231 was deposited on Sep. 17, 1998, with the American Type Culture Collection (ATCC), 12301 Parklawn Drive, Rockville, Md. 20852, U.S.A. under the provisions of the Budapest Treaty for the International Recognition of the Deposit of Microorganisms for the Purposes of Patent Procedure and was accorded ATCC Accession No. 203197. […]

human MCH1 receptor [2] = target: T2, human MCH1 receptor; experiment: Functional assay: intracellular calcium mobilization (antagonist potency Kb); type: cell-based; set-up: expressed in transfected cells; host or cells: COS-7 cells, transient, DEAE-dextran, plasmid pEXJ.HR-TL231 (ATCC 203197)
Protocol: Intracellular calcium mobilization assays for the MCH1 receptor were carried out using plasmid pEXJ.HR-TL231 (ATCC Accession No. 203197). COS-7 cells were transiently transfected with DNA encoding the MCH1 receptor utilizing the DEAE-dextran method as described above. The intracellular free calcium concentration was measured by fluorescent imaging using the calcium sensitive fluorscent dye Fluo-3. COS-7 cells expressing the human MCH1 receptor were seeded onto sterile 96 well plates, washed with Hank's balanced salt solution (HBSS), containing 20 mM HEPES, 2.5 mM probenecid, and 0.1% BSA, and loaded with the same buffer containing 3.8 μM Fluo-3 for 1 hour at 37° C. After washing with HBSS to remove the fluo-3 solution, cells were equilibrated for 10 minutes.

human NPY1 = target: T3, human NPY1 (Homo sapiens, UniProt P25929); experiment: Radioligand binding assay, cloned receptor; conditions: Table 2; read-out: hNPY1 Ki
T3 construct: expressed in transfected cells
T3 sequence (P25929 1-384): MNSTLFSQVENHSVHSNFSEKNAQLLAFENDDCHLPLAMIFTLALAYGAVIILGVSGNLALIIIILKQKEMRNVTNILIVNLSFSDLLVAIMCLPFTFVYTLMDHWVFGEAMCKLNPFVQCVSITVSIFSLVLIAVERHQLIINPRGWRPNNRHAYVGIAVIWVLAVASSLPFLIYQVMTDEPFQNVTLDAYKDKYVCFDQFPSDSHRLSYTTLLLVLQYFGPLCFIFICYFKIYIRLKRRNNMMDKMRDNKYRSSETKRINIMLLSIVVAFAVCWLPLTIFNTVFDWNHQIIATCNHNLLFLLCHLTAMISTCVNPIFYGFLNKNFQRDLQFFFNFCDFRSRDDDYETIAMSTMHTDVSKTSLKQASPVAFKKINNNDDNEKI
Protocol: as §1, §2

human NPY5 = target: T4, human NPY5 (Homo sapiens, UniProt Q15761); experiment: Radioligand binding assay, cloned receptor; conditions: Table 2; read-out: hNPY5 Ki
T4 construct: expressed in transfected cells
T4 sequence (Q15761 1-445): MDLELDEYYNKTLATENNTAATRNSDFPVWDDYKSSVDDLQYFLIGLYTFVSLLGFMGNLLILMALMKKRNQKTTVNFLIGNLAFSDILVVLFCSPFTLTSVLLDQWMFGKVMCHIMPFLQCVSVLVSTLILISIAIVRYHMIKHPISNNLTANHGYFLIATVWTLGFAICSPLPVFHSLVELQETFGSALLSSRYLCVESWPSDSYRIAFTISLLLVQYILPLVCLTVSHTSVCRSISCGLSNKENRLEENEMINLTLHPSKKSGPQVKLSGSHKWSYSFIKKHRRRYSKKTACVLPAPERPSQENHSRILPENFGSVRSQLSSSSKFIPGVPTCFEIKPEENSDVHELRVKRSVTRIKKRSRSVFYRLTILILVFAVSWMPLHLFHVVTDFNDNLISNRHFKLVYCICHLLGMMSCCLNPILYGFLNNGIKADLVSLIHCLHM
Protocol: as §1, §2

human GALR3 = target: T5, human GALR3 (Homo sapiens, UniProt O60755); experiment: Radioligand binding assay, cloned receptor; conditions: Table 2; read-out: hGALR3 Ki
T5 construct: expressed in transfected cells
T5 sequence (O60755 1-368): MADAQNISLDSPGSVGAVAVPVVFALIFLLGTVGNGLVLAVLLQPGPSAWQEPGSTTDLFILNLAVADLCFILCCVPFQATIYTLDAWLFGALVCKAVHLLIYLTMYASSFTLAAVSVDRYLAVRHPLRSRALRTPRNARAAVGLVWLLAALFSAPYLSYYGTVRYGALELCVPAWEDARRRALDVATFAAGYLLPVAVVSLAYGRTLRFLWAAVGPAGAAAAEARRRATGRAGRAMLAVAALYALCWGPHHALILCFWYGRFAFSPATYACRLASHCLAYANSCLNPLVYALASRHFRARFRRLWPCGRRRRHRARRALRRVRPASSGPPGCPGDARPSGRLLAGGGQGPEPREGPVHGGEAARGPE
Protocol: as §1, §2

human GALR1 = target: T6, human GALR1 (Homo sapiens, UniProt P47211); experiment: Radioligand binding assay, cloned receptor; conditions: Table 2; read-out: hGALR1 Ki
T6 construct: expressed in transfected cells
T6 sequence (P47211 1-349): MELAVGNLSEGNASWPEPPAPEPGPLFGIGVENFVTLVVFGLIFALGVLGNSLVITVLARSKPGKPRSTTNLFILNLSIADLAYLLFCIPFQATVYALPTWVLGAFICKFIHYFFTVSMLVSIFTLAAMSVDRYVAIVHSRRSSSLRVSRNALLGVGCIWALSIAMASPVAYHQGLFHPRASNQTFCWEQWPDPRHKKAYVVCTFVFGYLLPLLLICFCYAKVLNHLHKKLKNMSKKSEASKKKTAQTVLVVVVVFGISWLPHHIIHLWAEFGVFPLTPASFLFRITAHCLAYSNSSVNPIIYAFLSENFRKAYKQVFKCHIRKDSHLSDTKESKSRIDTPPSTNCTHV
Protocol: as §1, §2

human GALR2 = target: T7, human GALR2 (Homo sapiens, UniProt O43603); experiment: Radioligand binding assay, cloned receptor; conditions: Table 2; read-out: hGALR2 Ki
T7 construct: expressed in transfected cells
T7 sequence (O43603 1-387): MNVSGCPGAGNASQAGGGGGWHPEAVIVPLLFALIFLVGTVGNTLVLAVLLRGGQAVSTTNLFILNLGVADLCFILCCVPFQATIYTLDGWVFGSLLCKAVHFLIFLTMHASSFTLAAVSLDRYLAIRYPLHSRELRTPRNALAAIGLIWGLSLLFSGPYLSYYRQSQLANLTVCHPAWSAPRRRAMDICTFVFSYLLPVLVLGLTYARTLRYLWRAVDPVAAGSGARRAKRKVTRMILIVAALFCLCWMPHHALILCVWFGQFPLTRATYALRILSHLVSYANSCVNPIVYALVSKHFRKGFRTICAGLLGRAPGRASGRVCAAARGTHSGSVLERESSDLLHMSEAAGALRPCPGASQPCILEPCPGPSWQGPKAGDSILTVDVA
Protocol: as §1, §2

G4F-7 cells = conditions: cited from earlier work; for pKi: inhibition of radioiodinated [Phe13,Tyr19]-MCH binding
[3] = Table 1, cloned human MCH1 receptor, functional assay, read-out: Kb (nM) hMCH1
[4] = Table 2, antagonist potency at the human MCH1 receptor, read-out: hMCH1 Kb

COCC1=C(C(=O)OC)C(c2ccc(F)c(F)c2)N(C(=O)NCCCN2CCC(c3cccc(NC(C)=O)c3)CC2)C(=O)N1 (single isomer, unassigned; (+)) [Example 10, (+)-1,2,3,6-TETRAHYDRO-1-{N-[4-(3,-ACETAMIDO)-PHENYL-PIPERIDIN-1-YL]PROPYL}CARBOXAMIDO-4-METHOXYMETHYL-6-(3,4-DIFLUORO-PHENYL)-2-OXOPYRIMIDINE-5-CARBOXYLIC ACID METHYL ESTER]
pKi (rat 5-HT2C receptor): 4.53 | pKi (human MCH1 receptor [1]): 10.10 | Kb (human MCH1 receptor [2]; [3]): 0.3 nM

CCN1c2ccc(/C=C3\SC(=S)NC3=O)cc2C(C)=CC1(C)C [Example 25]
pKi (human NPY1): < 4.30 | Kb (human MCH1 receptor [2]; [3]): 126 nM | Kb (human MCH1 receptor [2]; [4]): 126 nM

O=C(CCCN1CCC(NC(=O)c2ccccc2)CC1)c1ccc(Cl)cc1 [Example 28, 1-[3-(4-CHLOROBENZOYL)]PROPYL-4-BENZAMIDOPIPERIDINE]
pKi (human NPY1): < 4.30 | Kb (human MCH1 receptor [2]; [3]): 60 nM | Kb (human MCH1 receptor [2]; [4]): 60 nM

CCCCc1ccc(-c2cc(=O)[nH]c3[nH]c(=O)[nH]c(=O)c23)s1 [Example 37, 5-(5-BUTYL-2-THIENYL)PYRIDO[2,3-d]PYRIMIDINE-2,4,7(1H,3H,8H)-TRIONE]
pKi (human NPY5): < 4.30 | pKi (human GALR3): < 4.30 | pKi (human GALR1): < 4.30 | pKi (human GALR2): < 4.30 | pKi (human NPY1): < 4.30 | pKi (rat 5-HT2C receptor): < 4.30 | Kb (human MCH1 receptor [2]; [3]): 162 nM | Kb (human MCH1 receptor [2]; [4]): 162 nM

Melanin-concentrating hormone [native MCH]
pKi (G4F-7 cells): 7.92

[Phe^13,Tyr^19]-MCH: radioiodinated MCH analogue; the ligand retained biological activity and exhibited specific binding to a variety of cell lines
pKd (G4F-7 cells; radioiodinated ligand, G4F-7 cells): 9.93

rat ANF: rat ANF, weakly inhibited binding of the radioiodinated MCH analogue (SLRRSSCFGGRIDRIGAQSGLGCNSFRY; ends and bridges not checked; cysteine pairing not given here; UniProt P01161 123-150, looked up)
pKi (G4F-7 cells): 6.94

α-MSH
inhibition of binding (G4F-7 cells; radioiodinated [Phe13,Tyr19]-MCH binding): not inhibited

Source: patent publication US6720324B2, “Selective melanin concentrating hormone-1 (MCH1) receptor antagonists and uses thereof” (Synaptic Pharmaceutical Corporation, priority 2000, dated 2004)
